Laboratory results from publication PMC3575220, “Inhibition of dengue NS2B-NS3 protease and viral replication in Vero cells by recombinant retrocyclin-1” (BMC Infectious Diseases, 2012).
Where no end group is shown, it is not given here.

Experiments:
[1] = cited from earlier work
Excerpt: We conducted this study to evaluate the effect of RC-1, a cationic cyclic peptide on the activity of dengue protease as a target to inhibit replication of dengue virus. The RC-1 was produced inexpensively as a soluble recombinant peptide in E. coli and the tri-disulphide bonds were correctly reformed in alkaline and diluted environment. […] Furthermore, this peptide is able to provide long-lasting prote ...

[2] = test system: E. coli; assay: Disc diffusion susceptibility test, E. coli; format: cell-based; conditions: 0.1 mg/ml RC-1, Mueller-Hinton agar, clear circular zone
Description: (§1) The disc diffusion susceptibility test was used to evaluate antimicrobial activity of the recombinant RC-1. The samples of recombinant RC-1 before and after refolding applications (100 μg/ml) were dropped onto a filter paper discs (0.1 mg/ml) and left to dry at room temperature. Then, the filters paper discs placed on an E. coli-inoculated Mueller-Hinton agar and a Saccharomyces cerevisiae inoculated yeast extract peptone dextrose (YPD) agar plates. Both E. coli and yeast inoculated plates were inoculated for 16 hrs at […] and 30°C, respectively.
(§2) Figure 2 Antimicrobial activity of recombinant RC-1 after refolding. Each sample of RC-1 before and after refolding (0.1 mg/ml) was dropped on filter papers discs and left to dry at room temperature. The dry filter paper discs were placed on E. coli and yeast-inoculated antibiotic-free Mueller-Hinton-gar and YPD-agar plates respectively and incubated overnight at 37°C (E. coli) or 30°C (yeast).

[3] = test system: DENV-2 in Vero cells; assay: DENV-2 RNA reduction in infected Vero cells by real-time PCR; format: cell-based; conditions: for reduction in viral replication / reduction in total viral RNA copies: 150 μM RC-1, MOI of 2; for reduction in total viral RNA copies: ± SD
Description: Three independent experiments were carried out for pre, simultaneous and post-infection treatments with RC-1 at 24, 48 and 72 hrs of each infection in triplicates. Vero cells were grown in a 24-well tissue culture plate (1 × 10^5 cells/well), incubated 24 hrs under optimal conditions and infected with DENV-2 (MOI of 2). For pre-treatment infection, 150 μM of RC-1 was added to the cells before virus inoculation and incubated for 24 hrs. Afterwards, DENV-2 supernatant was added, followed by incubation for 1 hr with gentle shaking every 10 min for optimal virus to cells contact. The virus supernatant was removed, and the cells were washed twice with fresh serum-free DMEM media to remove residual virus. New complete DMEM media were added and the cultures were incubated for 24, 48 and 72 hrs at 37°C, supplemented with 5% CO2. Same applications were used for simultaneous treatment infection except the peptide was mixed with the virus supernatant and incubated at 37°C for 1 h, and then inoculated onto Vero cells. The post-treatment infection was carried out after inoculation of Vero cells with DENV-2 and the complete DMEM medium was added containing the RC-1. Then, the cultures were incubated for 24, 48 and 72 hrs at 37°C and 5% CO2 with three wells of infected cells in each experiment were kept without RC-1 as controls. Cellular supernatants were collected and stored at −80°C for viral quantification using real time PCR.
For quantification of copy number of DENV-2 RNA, the standard curve was generated by 10-fold serial dilution of known copies of DENV-2 RNA. Viral RNA was extracted from culture supernatant using QIAmp viral RNA mini kit (Qiagen, Germany) according to the manufacturer’s instructions. A fragment located at the 5'UTR region of the virus genome was used to generate the primers. One-step RT-PCR using SyBr Green Master Kit (Qiagen, Germany) was used to conduct absolute quantification using ABI7300 machine from Applied Biosystems (Foster City, CA). The PCR profile was 1 cycle of 50°C for 2 min, 1 cycle of 95°C for 10 min, 40 cycles of 10 sec denaturation at 95°C, 20 sec annealing at 57.7°C with a single fluorescence emission measurement and 30 sec extension at 72°C, followed by 5 min at 72°C for final extension. Dissociation curve analysis was added to the end of each run. Results were analyzed using the company's Sequence Detection Software Version 1.3.
(§3) Figure 5 The percentage of viral reduction in Vero cells after different treatments with RC-1. (A) RC-1 was diluted to various concentrations (37.5, 75, 100, 125, 150 and 175 μM) with DMEM media supplemented with 2 % FBS and added to the cell culture. The viability of cells was analyzed at 24, 48 and 72 hrs using Non-Radioactive Cell Proliferation assay. (B) The cells were grown under the optimal conditions and infected with DENV-2 at the MOI of 2. The MNTD of RC-1 (150 μM) was used to treat infected Vero cells and the results were normalized with infected cells without RC-1 as controls. Pre, simultaneous and post-infection treatments with RC-1 were applied at 24, 48 and 72 hrs of each infection. The percentage of inhibition was the highest for simultaneous treatment compared to pre and post-treatment. (Two way ANOVA was used with Bonferroni post-test, P < 0.0001).

[4] = test system: different cell lines; conditions: up to 500 μg/ml (250 μM); cited from earlier work
Excerpt: (§4) It has been known that the compound toxicity could hinder the development of drugs against dengue virus.

[5] = up to 500 μg/ml (250 μM); cited from earlier work
Excerpt: as §4

[6] = test system: Vero cells; assay: Maximum non-toxic dose test (cell proliferation assay); format: cell-based
Description: Vero cells were seeded at 1 × 10^4 cells per well in triplicate in 96 well plates and propagated at optimal conditions (37°C, 5% CO2 in humidified incubator). Recombinant RC-1 was diluted to serial concentrations (37.5, 75, 100, 125, 150 and 175 μM) with DMEM media supplemented with 2% FBS. Each dilution was tested in triplicate. Two control wells were included in each experiment: culture medium without RC-1 and culture medium with different concentrations of the RC-1 in the absence of cells to subtract the background value of RC-1 in the culture medium. The cell cultures were analyzed at 24, 48 and 72 hours using Non-Radioactive Cell Proliferation assay (Promega, USA) according to the manufacturer’s instructions.
as §3

[7] = target: T1, dengue NS2B-NS3pro (Dengue virus type 2, UniProt P29990); assay: Fluorogenic NS2B-NS3pro protease inhibition assay; format: biochemical, DENV-2; conditions: pH 8.5, 200 mM Tris–HCl, 20 μM Boc-Gly-Arg-Arg-AMC, 2 μM enzyme, 30 min pre-incubation, 30 min reaction, fluorescence ex 350/em 440 nm, triplicates, ± SD
T1 construct: 6XHis (pQE30 vector) (N); made in house; host or cells: Escherichia coli XL1-Blue
Description: The bioassay used in this study was published by Rothan and co-workers. In brief, endpoint reaction mixtures with total volume of 200 μl were prepared consisted of 20 μM fluorogenic peptide substrate (Boc-Gly-Arg-Arg-AMC), 2 μM of recombinant NS2B-NS3pro, with or without RC-1 of varying concentrations, buffered at pH 8.5 with 200 mM Tris–HCl. The RC-1 was initially prepared in Tris–HCl buffer and assayed at five different concentrations, ranging from 9.3 - 150 μM. Three types of reactions which are buffer, buffer with enzyme and buffer with enzyme and different concentrations of RC-1were incubated at 28°C, 37°C and 40°C for 30 minutes. Subsequently, the substrate was added to each reaction mixture and incubated at same temperatures for another 30 minutes. Measurements were performed in triplicates using Tecan Infinite M200 Pro fluorescence spectrophotometer. Substrate cleavage was normalized against buffer only (control) and optimized at the emission at 440 nm upon excitation at 350 nm. The readings were then used for calculating Km values of peptide substrate and IC50 values of peptide inhibitors using non-linear regression models in GraphPad Prism 5.0 software as previously described.
Figure 4 The inhibition potential of RC-1 against the activity of DENV-2 NS2B-NS3pro. End point protease inhibition assay was carried out to evaluate the inhibitory potential of RC-1 against the protease’s ability to cleave a fluorogenic peptide substrate (Boc-Gly-Arg-Arg-AMC). The reaction mixtures consisted of 20 μM substrate, 2 μM of enzyme, with or without RC-1 of varying concentrations incubated at 28°C, 37°C or 40°C for 30 minutes. The results were normalized with the substrate alone and substrate with protease incubated at same temperatures. […] 2'; read as 1.2

[8] = test system: yeast (Saccharomyces cerevisiae); assay: Disc diffusion susceptibility test, yeast; format: cell-based; conditions: 0.1 mg/ml RC-1, YPD agar, 30°C, clear circular zone
Description: as §1, §2

In the case of “GICRCICGRGICRCICGR (also: bicyclic or more (positions not given here)) [RC-1, retrocyclin-1, disulphide cyclic peptide, theta-defensin analogue, circular, cationic, tri-disulphide bonded (Cys3-Cys16, Cys5-Cys14, Cys7-Cys12)]”, the “fold potency of cyclic RC-1 over the open chain analogue” value [1] is given as 3 fold, the antimicrobial activity [2] is given as “exhibited antimicrobial activity” and the “reduction in viral replication” value ([3]; post-treatment, 48 hrs, triplicates) is given as 30%. The “reduction in viral replication” value ([3]; post-treatment, 72 hrs, triplicates) was 45%, the “viral replication (in words)” value ([3]; pre, simultaneous and post infection treatment modes, maximum non-toxic dose) was “significantly declined” and the “reduction in viral replication” value ([3]; pre-treatment (24 hrs before virus), 48 hrs, triplicates) was 40%. For the same sequence, the “reduction in viral replication” value ([3]; pre-treatment (24 hrs before virus), 72 hrs, triplicates) was 38%, the “reduction in total viral RNA copies” value ([3]; simultaneous treatment, 24 hrs, triplicates) was 45.5% ± 4.2 and the “reduction in viral replication” value ([3]; simultaneous treatment, 72 hrs) was 85%. For the same sequence, the “reduction in total viral RNA copies” value ([3]; simultaneous treatment, 72 hrs, triplicates) was 85% ± 7.1, the “cytotoxicity in different cell lines” value [4] was “neither haemolytic activity nor cytotoxicity” and the haemolytic activity [5] was “neither haemolytic activity nor cytotoxicity”. The cellular morphological abnormalities ([6]; Vero cells) was “no noticeable cellular morphological abnormalities”, the “cellular toxicity (in words)” value ([6]; Vero cells, 150 μM) was “low cellular toxicity” and the “maximum non-toxic dose (MNTD)” value ([6]; all three incubation periods, 24, 48 and 72 hrs, 37.5-175 μM tested, DMEM 2% FBS, triplicate) was 150 µM. It also gave an IC50 ([7]; 28°C) of 46.1 ± 1.7 µM, an IC50 ([7]; 37°C) of 21.4 ± 1.6 µM and an IC50 ([7]; 40°C) of 14.1 ± 1.2 µM. The antimicrobial activity [8] was “exhibited antimicrobial activity”.
